Results reported in patent US8129398B2 (priority 2008, dated 2012).

What follows are compounds tested against T1, HIV-integrase (Human immunodeficiency virus type 1 group M subtype B, UniProt P12497) (assay: HIV-Integrase Inhibition Activity (SPA bead integration assay with P33 labeled target DNA)). Details: recombinant integrase, class symbols; read-out: in vitro activity.
T1 construct: Recombinant integrase (0.26 ng) was incubated with the beads
Assay type: biochemical
Procedure, shortened: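 Strand integration read as bead-proximity CPM after P33 target DNA (0.1 fmol) and inhibitor were added to washed integrase–substrate DNA complexes on SPA beads. Enzyme bound 90 min at 37° C; EDTA (10 mM final) terminated reaction; IC50 graded A/B/C.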

`Cc1cc(CNC(=O)c2nc3n(c(=O)c2O)CCC2CCC3(NC(=O)C(=O)N(C)C)C2)ccc1F` (stereo not drawn) [Example 212, Ethanediamide, N′-[2-[[[(4-fluoro-3-methylphenyl)methyl]amino]carbonyl]-7,8,9,10-tetrahydro-3-hydroxy-4-oxo-8,11-methano-4H-pyrimido[1,2-a]azocin-11(6H)-yl]-N,N-dimethyl-] and `CN(C)C(=O)C(=O)NC12CCC(CCn3c1nc(C(=O)NCc1ccc(F)c(Cl)c1)c(O)c3=O)C2` (stereo not drawn) [Example 213, Ethanediamide, N′-[2-[[[(3-chloro-4-fluorophenyl)methyl]amino]carbonyl]-7,8,9,10-tetrahydro-3-hydroxy-4-oxo-8,11-methano-4H-pyrimido[1,2-a]azocin-11(6H)-yl]-N,N-dimethyl-] cannot be ordered by IC50: less than 10 nM for the first, less than 10 nM for the second.

`CN(C)C(=O)C(=O)NC12CCC(CCn3c1nc(C(=O)NCc1ccc(F)c(F)c1)c(O)c3=O)C2` (stereo not drawn) [Example 214, Ethanediamide, N′-[2-[[[(3,4-difluorophenyl)methyl]amino]carbonyl]-7,8,9,10-tetrahydro-3-hydroxy-4-oxo-8,11-methano-4H-pyrimido[1,2-a]azocin-11(6H)-yl]-N,N-dimethyl] and `Cc1cc(CNC(=O)c2nc3n(c(=O)c2O)CCC2CCC3(NC(=O)C(=O)N3CC[C@@H](F)C3)C2)ccc1F` (stereo partly drawn) [Example 216, 8,11-Methano-4H-pyrimido[1,2-a]azocine-2-carboxamide, N-[(4-fluoro-3-methylphenyl)methyl]-11-[[2-[(3R)-3-fluoro-1-pyrrolidinyl]-1,2-dioxoethyl]amino]-6,7,8,9,10,11-hexahydro-3-hydroxy-4-oxo-] cannot be ordered by IC50: less than 10 nM for the first, less than 10 nM for the second.

`O=C(NC12CCC(CCn3c1nc(C(=O)NCc1ccc(F)c(Cl)c1)c(O)c3=O)C2)C(=O)N1CC[C@@H](F)C1` (stereo partly drawn) [Example 215, 8,11-Methano-4H-pyrimido[1,2-a]azocine-2-carboxamide, N-[(3-chloro-4-fluorophenyl)methyl]-11-[[2-[(3R)-3-fluoro-1-pyrrolidinyl]-1,2-dioxoethyl]amino]-6,7,8,9,10,11-hexahydro-3-hydroxy-4-oxo-] and `O=C(NCc1ccc(F)cc1)c1nc2n(c(=O)c1O)CC1CCC2(NC(=O)C2CCOC2)CC1` (stereo not drawn) [Example 238, 7,10-Ethanopyrimido[1,2-a]azepine-2-carboxamide, N-[(4-fluorophenyl)methyl]-4,6,7,8,9,10-hexahydro-3-hydroxy-4-oxo-10-[[(tetrahydro-3-furanyl)carbonyl]amino]-] cannot be ordered by IC50: less than 10 nM for the first, less than 10 nM for the second.

`O=C(NC12COC(CCn3c1nc(C(=O)NCc1ccc(F)cc1)c(O)c3=O)C2)OCc1ccccc1` (stereo not drawn) [Example 217, Benzyl (2-((4-fluorobenzyl)carbamoyl)-3-hydroxy-4-oxo-7,8-dihydro-4 H,6H-8,11-methanopyrimido[2,1-d][1,5]oxazocin-11(10H)-yl)carbamate] and `CN(C)C(=O)C(=O)NC12COC(CCn3c1nc(C(=O)NCc1ccc(F)cc1)c(O)c3=O)C2` (stereo not drawn) [Example 218, N′-(2-((4-Fluorobenzyl)carbamoyl)-3-hydroxy-4-oxo-7,8-dihydro-4 H,6H-8,11-methanopyrimido[2,1-d][1,5]oxazocin-11(10H)-yl)-N,N-dimethylethanediamide] cannot be ordered by IC50: less than 10 nM for the first, less than 10 nM for the second.

First: NC12CCC(Cn3c1nc(C(=O)NCc1ccc(F)cc1)c(O)c3=O)OC2 (stereo not drawn) [Example 220, 10-Amino-N-(4-fluorobenzyl)-3-hydroxy-4-oxo-4,6,7,8,9,10-hexahydro-7,10-(epoxymethano)pyrimido[1,2-a]azepine-2-carboxamide]
Second: CC(=O)NC12CCC(Cn3c1nc(C(=O)NCc1ccc(F)cc1)c(O)c3=O)OC2 (stereo not drawn) [Example 221, 10-(Acetylamino)-N-(4-fluorobenzyl)-3-hydroxy-4-oxo-4,6,7,8,9,10-hexahydro-7,10-(epoxymethano)pyrimido[1,2-a]azepine-2-carboxamide]
The IC50 of the first is higher: 10 to 100 nM for the first, less than 10 nM for the second.

First: CN(C)C(=O)C(=O)NC12CCC(Cn3c1nc(C(=O)NCc1ccc(F)cc1)c(O)c3=O)OC2 (stereo not drawn) [Example 222, N′-(2-((4-Fluorobenzyl)carbamoyl)-3-hydroxy-4-oxo-6,7,8,9-tetrahydro-7,10-(epoxymethano)pyrimido[1,2-a]azepin-10(4H)-yl)-N,N-dimethylethanediamide]
Second: CN(C)C(=O)COC12CCC(CC1)Cn1c2nc(C(=O)NCc2ccc(F)cc2)c(O)c1=O [Example 226, 7,10-Ethanopyrimido[1,2-a]azepine-2-carboxamide, 10-[2-(dimethylamino)-2-oxoethoxy]-N-[(4-fluorophenyl)methyl]-4,6,7,8,9,10-hexahydro-3-hydroxy-4-oxo-]
The IC50 of the first is lower: less than 10 nM for the first, 10 to 100 nM for the second.

`COCCOC12CCC(CC1)Cn1c2nc(C(=O)NCc2ccc(F)cc2)c(O)c1=O` [Example 225, 7,10-Ethanopyrimido[1,2-a]azepine-2-carboxamide, N-[(4-fluorophenyl)methyl]-4,6,7,8,9,10-hexahydro-3-hydroxy-10-(2-methoxyethoxy)-4-oxo-] and `Cn1ccc(C(=O)NC23CCC(CC2)Cn2c3nc(C(=O)NCc3ccc(F)cc3)c(O)c2=O)n1` [Example 245, 7,10-Ethanopyrimido[1,2-a]azepine-2-carboxamide, N-[(4-fluorophenyl)methyl]-4,6,7,8,9,10-hexahydro-3-hydroxy-10-[[(1-methyl-1H-pyrazol-3-yl)carbonyl]amino]-4-oxo-] cannot be ordered by IC50: less than 10 nM for the first, less than 10 nM for the second.

`Cc1ccc(CNC(=O)c2nc3n(c(=O)c2O)CC2CCC3(NC(=O)C(=O)N(C)C)CC2)o1` [Example 234] and `CN(C)C(=O)C(=O)NC12CCC(CC1)Cn1c2nc(C(=O)NCc2c[nH]c3ccccc23)c(O)c1=O` [Example 235, Ethanediamide, N,N-dimethyl-N′-[6,7,8,9-tetrahydro-3-hydroxy-2-[[(1H-indol-3-ylmethyl)amino]carbonyl]-4-oxo-7,10-ethanopyrimido[1,2-a]azepin-10(4H)-yl]-] cannot be ordered by IC50: less than 10 nM for the first, less than 10 nM for the second.

`Cc1cc(CNC(=O)c2nc3n(c(=O)c2O)CC2CCC3(NC(=O)C(=O)N(C)C)CC2)nn1C(C)(C)C` [Example 236, Ethanediamide, N′-[2-[[[[1-(1,1-dimethylethyl)-5-methyl-1H-pyrazol-3-yl]methyl]amino]carbonyl]-6,7,8,9-tetrahydro-3-hydroxy-4-oxo-7,10-ethanopyrimido[1,2-a]azepin-10(4H)-yl]-N,N-dimethyl-] and `CN(C)C(=O)C(=O)NC12CCC(CC1)Cn1c2nc(C(=O)NCc2ccc3nccn3c2)c(O)c1=O` [Example 244, Ethanediamide, N,N-dimethyl-N′-[6,7,8,9-tetrahydro-3-hydroxy-2-[[(imidazo[1,2-a]pyridin-6-ylmethyl)amino]carbonyl]-4-oxo-7,10-ethanopyrimido[1,2-a]azepin-10(4H)-yl]-] fall in the same range of IC50: 10 to 100 nM for the first, 10 to 100 nM for the second.

`Cc1ccc(C(=O)NC23CCC(CC2)Cn2c3nc(C(=O)NCc3ccc(F)cc3)c(O)c2=O)o1` [Example 237, 7,10-Ethanopyrimido[1,2-a]azepine-2-carboxamide, N-[(4-fluorophenyl)methyl]-4,6,7,8,9,10-hexahydro-3-hydroxy-10-[[(5-methyl-2-furanyl)carbonyl]amino]-4-oxo-] and `Cn1nccc1C(=O)NC12CCC(CC1)Cn1c2nc(C(=O)NCc2ccc(F)cc2)c(O)c1=O` [Example 247, 7,10-Ethanopyrimido[1,2-a]azepine-2-carboxamide, N-[(4-fluorophenyl)methyl]-4,6,7,8,9,10-hexahydro-3-hydroxy-10-[[(1-methyl-1H-pyrazol-5-yl)carbonyl]amino]-4-oxo-] cannot be ordered by IC50: less than 10 nM for the first, less than 10 nM for the second.

`O=C(NC12CCC(CC1)Cn1c2nc(C(=O)NCc2ccc(F)cc2)c(O)c1=O)c1ccc2nccn2c1` [Example 239, 7,10-Ethanopyrimido[1,2-a]azepine-2-carboxamide, N-[(4-fluorophenyl)methyl]-4,6,7,8,9,10-hexahydro-3-hydroxy-10-[(imidazo[1,2-a]pyridin-6-ylcarbonyl)amino]-4-oxo-] and `Cn1cc(C(=O)NC23CCC(CC2)Cn2c3nc(C(=O)NCc3ccc(F)cc3)c(O)c2=O)cn1` [Example 246, 7,10-Ethanopyrimido[1,2-a]azepine-2-carboxamide, N-[(4-fluorophenyl)methyl]-4,6,7,8,9,10-hexahydro-3-hydroxy-10-[[(1-methyl-1H-pyrazol-4-yl)carbonyl]amino]-4-oxo-] cannot be ordered by IC50: less than 10 nM for the first, less than 10 nM for the second.

`Cc1cc(C(=O)NC23CCC(CC2)Cn2c3nc(C(=O)NCc3ccc(F)cc3)c(O)c2=O)nn1C(C)(C)C` [Example 240] and `Cc1cc(C(=O)NC23CCC(CC2)Cn2c3nc(C(=O)NCc3ccc(F)cc3)c(O)c2=O)n(C)n1` [Example 241, 7,10-Ethanopyrimido[1,2-a]azepine-2-carboxamide, 10-[[(1,3-dimethyl-1H-pyrazol-5-yl)carbonyl]amino]-N-[(4-fluorophenyl)methyl]-4,6,7,8,9,10-hexahydro-3-hydroxy-4-oxo-] cannot be ordered by IC50: less than 10 nM for the first, less than 10 nM for the second.

First: Cc1c(C(=O)NC23CCC(CC2)Cn2c3nc(C(=O)NCc3ccc(F)cc3)c(O)c2=O)ncn1C [Example 242, 7,10-Ethanopyrimido[1,2-a]azepine-2-carboxamide, 10-[[(1,5-dimethyl-1H-imidazol-4-yl)carbonyl]amino]-N-[(4-fluorophenyl)methyl]-4,6,7,8,9,10-hexahydro-3-hydroxy-4-oxo-]
Second: Cc1ncn(C)c1C(=O)NC12CCC(CC1)Cn1c2nc(C(=O)NCc2ccc(F)cc2)c(O)c1=O [Example 243, 7,10-Ethanopyrimido[1,2-a]azepine-2-carboxamide, 10-[[(1,4-dimethyl-1H-imidazol-5-yl)carbonyl]amino]-N-[(4-fluorophenyl)methyl]-4,6,7,8,9,10-hexahydro-3-hydroxy-4-oxo-]
The IC50 of the first is lower: less than 10 nM for the first, 10 to 100 nM for the second. The first is the more potent here.

`Cn1cc(C(=O)NC23CCC(CC2)Cn2c3nc(C(=O)NCc3ccc(F)cc3)c(O)c2=O)nn1` [Example 248, 7,10-Ethanopyrimido[1,2-a]azepine-2-carboxamide, N-[(4-fluorophenyl)methyl]-4,6,7,8,9,10-hexahydro-3-hydroxy-10-[[(1-methyl-1H-1,2,3-triazol-4-yl)carbonyl]amino]-4-oxo-] showed an IC50 of less than 10 nM.
